Results taken from patent US20220409586A1, “TREATMENT AND PREVENTION OF NEUROINFLAMMATION OR AN INFLAMMATORY BRAIN DISORDER” (Inflazome Limited, priority 2019, published 2022).

Assay: Study A: blood-brain barrier penetration, MetaQuant microdialysis of left and right striatum after oral administration
Type: in vivo, mouse (C57Bl/6)
Details: for average peak levels in left and right striatal dialysate: freely-moving adult male C57Bl/6 mice, corrected for dilution, not for recovery; for time of average peak levels in striatal dialysate after compound administration: mice, left and right striatum
Method: The present study was designed to determine the free concentration of the compound of formula (I) in the left and right striatum of freely-moving adult male mice after oral administration.
Adult male C57Bl/6 mice (22-28 g; Envigo, the Netherlands) were used for the experiments. Following arrival, animals were housed in groups of 5 in polypropylene cages (40×50×20 cm) with wire mesh top in a temperature (22±2° C.) and humidity (55±15%) controlled environment on a 12 hour light cycle (07.00-19.00). Following surgery, animals were housed individually (cages 30×30×40 cm). Standard diet (SDS Diets, RM1 PL) and domestic quality mains water were available ad libitum.
Mice were anesthetized using isoflurane (2% and 500 mL/min O2). Before surgery, Finadyne (1 mg/kg, s.c.) was administered for analgesia during surgery and the post-surgical recovery period. A mixture of bupivacaine and epinephrine was used for local analgesia of the incision site.
The animals were placed in a stereotaxic frame (Kopf instruments, USA). MetaQuant microdialysis probes with a 3 mm exposed polyacrylonitrile membrane (MQ-PAN 3/3) were implanted bilaterally into the left and right striatum (coordinates for the tip of the probe: AP=+0.8 mm (to bregma), ML=+/−1.7 mm (to midline), DV=−4.0 mm (to dura) with an angle of 0° and the incisor bar set at 0.0 mm. All coordinates were based on “The mouse brain in stereotaxic coordinates” by Paxinos and Franklin (2008). The probes were attached to the skull with a stainless-steel screw and dental cement.
The monosodium salt of the compound of formula (I) was formulated in sterilized tap water at concentrations (with respect to the non-salt form) of 0.2 and 4 mg/mL for oral dosing at 5 mL/kg; 1 mg/kg and 20 mg/kg, respectively.
The MetaQuant microdialysis probes were connected with flexible PEEK tubing (Western Analytical Products Inc. USA; PK005-020) to a microperfusion pump (Harvard) and perfused with a slow flow of artificial CSF (perfusate), containing 147 mM NaCl, 3.0 mM KCl, 1.2 mM CaCl2, and 1.2 mM MgCl2, at a flow rate of 0.12 μL/min and a carrier flow of UP+0.02 M FA+0.04% ascorbic acid at 0.8 μL/min. After a minimum of two hours of prestabilisation, microdialysis samples were collected in 60 minute intervals. Following collection of two baseline samples, the compound of formula (I) (1 or 20 mg/kg in sterilised tap water) was administered orally at t=0 minutes. […]
Microdialysate samples from MetaQuant probes contained a nominal volume of 55.2 μL dialysate. Levels of the compound of formula (I) in MetaQuant microdialysate samples were quantified by LC-MS/MS. […]
Suitable in-run calibration curves were fitted using weighted (1/x) regression and the sample concentrations were determined using these calibration curves. […]

average peak levels in left and right striatal dialysate (1 mg/kg oral, at 5 hours after administration): 12 to 13 nM
time of average peak levels in striatal dialysate after compound administration (1 mg/kg oral): 5 h
average peak levels in left and right striatal dialysate (20 mg/kg oral, at 6 hours after administration): 201 to 243 nM
time of average peak levels in striatal dialysate after compound administration (20 mg/kg oral): 6 h
Structure (SMILES): CC(C)n1ccc(S(=O)(=O)NC(=O)Nc2c3c(cc4c2CCC4)CCC3)n1 [compound of formula (I)]
